Test results published in patent publication US10259810B2, “N-sulfonylated pyrazolo[3,4-b]pyridin-6-carboxamides and method of use” (AbbVie S.à.r.l., priority 2015, dated 2019).

Legend:
ΔF508-CFTR [1] = target: T1, ΔF508-CFTR (Homo sapiens, UniProt P13569, DEL508-508); experiment: CFTR cell surface levels using HRP-tagged ΔF508-CFTR expressing CFBE cells, in the presence of a co-corrector; assay type: cell-based
T1 construct: host or cells: CFBE41o-, doxycycline-inducible
Summary of the method: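 Chemiluminescent read-out of surface HRP (15 min, dark) after PBS washes. Activity is normalized as 100×(sample−DMSO)/(3 μM co-corrector alone−DMSO).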

ΔF508-CFTR [2] = target: T1, ΔF508-CFTR; experiment: CFTR cell surface levels using HRP-tagged ΔF508-CFTR expressing CFBE cells, intrinsic corrector capacity; assay type: cell-based; set-up: % Activation: concentration or dose not given beside the values
Summary of the method: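 Surface ΔF508-CFTR was measured as HRP chemiluminescence from an extracellular-loop-4 tag, expressed as percent activity between DMSO and a […] corrector control.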

[3] = HRP-tagged ΔF508-CFTR CFBE cells, in the presence of 3 μM co-corrector
[4] = HRP-tagged ΔF508-CFTR expressing CFBE41o- cells, compound alone (intrinsic corrector capacity), 20 hours at 33° C.
[5] = HRP-tagged ΔF508-CFTR CFBE cells, in the presence of 3 μM co-corrector, read-out: EC50
[6] = HRP-tagged ΔF508-CFTR expressing CFBE41o- cells, compound alone (intrinsic corrector capacity), 20 hours at 33° C., read-out: EC50

T1 sequence (P13569 with tags, fused parts or gaps DEL508-508): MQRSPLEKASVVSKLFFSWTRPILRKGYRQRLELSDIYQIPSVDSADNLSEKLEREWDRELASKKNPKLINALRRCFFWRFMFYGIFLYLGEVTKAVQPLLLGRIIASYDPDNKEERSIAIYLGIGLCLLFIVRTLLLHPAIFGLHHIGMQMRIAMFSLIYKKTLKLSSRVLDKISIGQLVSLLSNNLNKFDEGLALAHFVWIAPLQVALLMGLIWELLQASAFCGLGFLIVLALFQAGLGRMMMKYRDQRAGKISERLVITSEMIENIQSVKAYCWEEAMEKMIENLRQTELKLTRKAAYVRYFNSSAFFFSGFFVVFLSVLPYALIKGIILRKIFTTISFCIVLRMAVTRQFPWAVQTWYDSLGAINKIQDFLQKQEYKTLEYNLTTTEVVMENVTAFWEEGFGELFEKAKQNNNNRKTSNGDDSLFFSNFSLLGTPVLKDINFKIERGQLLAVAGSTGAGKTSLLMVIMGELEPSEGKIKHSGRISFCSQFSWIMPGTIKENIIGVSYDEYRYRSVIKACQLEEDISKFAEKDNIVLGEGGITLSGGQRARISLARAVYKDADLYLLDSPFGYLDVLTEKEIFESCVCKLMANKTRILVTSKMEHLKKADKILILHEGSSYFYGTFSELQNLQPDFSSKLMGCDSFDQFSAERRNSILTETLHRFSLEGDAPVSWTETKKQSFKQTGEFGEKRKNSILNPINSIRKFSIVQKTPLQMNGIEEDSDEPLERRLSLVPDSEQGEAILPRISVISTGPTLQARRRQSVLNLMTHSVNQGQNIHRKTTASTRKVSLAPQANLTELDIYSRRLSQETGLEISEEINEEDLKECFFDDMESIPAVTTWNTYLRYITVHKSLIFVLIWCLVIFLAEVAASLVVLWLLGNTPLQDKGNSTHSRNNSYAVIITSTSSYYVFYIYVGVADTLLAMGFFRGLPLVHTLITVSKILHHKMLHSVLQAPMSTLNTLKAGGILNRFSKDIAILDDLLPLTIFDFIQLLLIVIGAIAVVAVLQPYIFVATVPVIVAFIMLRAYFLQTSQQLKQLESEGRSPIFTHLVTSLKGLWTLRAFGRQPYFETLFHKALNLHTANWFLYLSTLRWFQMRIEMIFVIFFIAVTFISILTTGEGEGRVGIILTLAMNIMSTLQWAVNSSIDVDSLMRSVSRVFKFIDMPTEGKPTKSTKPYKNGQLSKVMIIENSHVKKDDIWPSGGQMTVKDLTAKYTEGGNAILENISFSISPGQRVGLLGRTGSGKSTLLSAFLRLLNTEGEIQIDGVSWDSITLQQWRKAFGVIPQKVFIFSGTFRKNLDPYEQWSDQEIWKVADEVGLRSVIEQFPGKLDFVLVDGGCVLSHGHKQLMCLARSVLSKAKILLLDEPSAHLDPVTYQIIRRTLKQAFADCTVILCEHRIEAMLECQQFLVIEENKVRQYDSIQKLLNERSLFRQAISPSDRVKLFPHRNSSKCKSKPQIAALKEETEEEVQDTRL

Structure (SMILES) | EC50 (ΔF508-CFTR [1]) [nM] | % Activation (ΔF508-CFTR [1]; [3]) [%] | EC50 (ΔF508-CFTR [2]) [nM] | % Activation (ΔF508-CFTR [2]; [4]) [%] | EC50 (ΔF508-CFTR [1]; [5]) [nM] | EC50 (ΔF508-CFTR [2]; [6]) [nM]
O=C(NS(=O)(=O)N1CCOCC1)c1cc(N2CCC(CN3CCCC3)CC2)c2c(C3CCC3)nn(-c3ccccc3)c2n1 [Compound 380, 3-cyclobutyl-N-(morpholine-4-sulfonyl)-1-phenyl-4-{4-[(pyrrolidin-1-yl)methyl]piperidin-1-yl}-1H-pyrazolo[3,4-b]pyridine-6-carboxamide] | 127 | 309.17 | 279 | 131.7 |  | 
CCCN(C)S(=O)(=O)NC(=O)c1cc(OCC2CCOCC2)c2c(C3CCC3)nn(-c3ccccc3)c2n1 [Compound 354, 3-cyclobutyl-N-[methyl(propyl)sulfamoyl]-4-[(oxan-4-yl)methoxy]-1-phenyl-1H-pyrazolo[3,4-b]pyridine-6-carboxamide] |  | 351 |  | 113.7 | 232 | 123
CCS(=O)(=O)NC(=O)c1cc(-c2ccc(N3CCOCC3)cc2)c2c(C(C)C)nn(C3CCCOC3)c2n1 (stereo not shown) [Compound 40, N-(ethanesulfonyl)-4-[4-(morpholin-4-yl)phenyl]-1-(oxan-3-yl)-3-(propan-2-yl)-1H-pyrazolo[3,4-b]pyridine-6-carboxamide] |  | 373.43 |  | 147.1 | 423 | 451
CS(=O)(=O)NC(=O)c1cc(-c2ccc(N3CCC(C#N)CC3)nc2)c2c(OC3COC3)nn(-c3ccccc3)c2n1 [Compound 300, 4-[6-(4-cyanopiperidin-1-yl)pyridin-3-yl]-N-(methanesulfonyl)-3-[(oxetan-3-yl)oxy]-1-phenyl-1H-pyrazolo[3,4-b]pyridine-6-carboxamide] |  | 266.55 |  | 119.9 | 109 | 309
O=C(NS(=O)(=O)N1CCC(N2CCCCC2)CC1)c1cc(N2CCC(N3CCOCC3)CC2)c2c(C3CCC3)nn(-c3ccccc3)c2n1 [Compound 453, N-([1,4'-bipiperidine]-1'-sulfonyl)-3-cyclobutyl-4-[4-(morpholin-4-yl)piperidin-1-yl]-1-phenyl-1H-pyrazolo[3,4-b]pyridine-6-carboxamide] |  | 385.1 |  | 149.3 | 319 | 403
COCC1(F)CCN(c2cc(C(=O)NS(C)(=O)=O)nc3c2c(C2CCC2)nn3-c2ccccc2)CC1 [Compound 504, 3-cyclobutyl-4-[4-fluoro-4-(methoxymethyl)piperidin-1-yl]-N-(methanesulfonyl)-1-phenyl-1H-pyrazolo[3,4-b]pyridine-6-carboxamide] |  | 404.8 |  | 206.4 | 210 | 301
CCCN(CC)S(=O)(=O)NC(=O)c1cc(OCC2CCOCC2)c2c(C3CCC3)nn(-c3ccccc3)c2n1 [Compound 355, 3-cyclobutyl-N-[ethyl(propyl)sulfamoyl]-4-[(oxan-4-yl)methoxy]-1-phenyl-1H-pyrazolo[3,4-b]pyridine-6-carboxamide] |  | 278.4 |  | 102.4 | 377 | 161
CC(C)N(C)S(=O)(=O)NC(=O)c1cc(N2CCC(N3CCOCC3)CC2)c2c(C3CCC3)nn(-c3ccc(F)cc3)c2n1 [Compound 482, 3-cyclobutyl-1-(4-fluorophenyl)-N-[methyl(propan-2-yl)sulfamoyl]-4-[4-(morpholin-4-yl)piperidin-1-yl]-1H-pyrazolo[3,4-b]pyridine-6-carboxamide] |  | 436.4 |  | 214.1 | 61.6 | 88.2
CN(C)S(=O)(=O)NC(=O)c1cc(N2CCC3(CC2)CCN(C2CC2)CC3)c2c(C3CCC3)nn(-c3ccc(F)cc3)c2n1 [Compound 584, 3-cyclobutyl-4-(9-cyclopropyl-3,9-diazaspiro[5.5]undecan-3-yl)-N-(dimethylsulfamoyl)-1-(4-fluorophenyl)-1H-pyrazolo[3,4-b]pyridine-6-carboxamide] |  | 337.55 |  | 164.3 | 272 | 177
COC(=O)N1CCN(C2CCN(c3cc(C(=O)NS(=O)(=O)N(C)C)nc4c3c(C3CCC3)nn4-c3ccc(F)cc3)CC2)CC1 [Compound 492, methyl 4-(1-{3-cyclobutyl-6-[(dimethylsulfamoyl)carbamoyl]-1-(4-fluorophenyl)-1H-pyrazolo[3,4-b]pyridin-4-yl}piperidin-4-yl)piperazine-1-carboxylate] |  | 483.4 |  | 311 | 43.9 | 79.9
COC1(CN2CCS(=O)(=O)CC2)CCN(c2cc(C(=O)NS(C)(=O)=O)nc3c2c(C2CCC2)nn3-c2ccccc2)CC1 [Compound 255, 3-cyclobutyl-4-{4-[(1,1-dioxo-1λ^6,4-thiazinan-4-yl)methyl]-4-methoxypiperidin-1-yl}-N-(methanesulfonyl)-1-phenyl-1H-pyrazolo[3,4-b]pyridine-6-carboxamide] |  | 365.8 |  | 122.3 | 3330 | 1880
COCC1CCN(c2cc(C(=O)NS(C)(=O)=O)nc3c2c(C(C)C)nn3C2CCCCC2)CC1 [Compound 218, 1-cyclohexyl-N-(methanesulfonyl)-4-[4-(methoxymethyl)piperidin-1-yl]-3-(propan-2-yl)-1H-pyrazolo[3,4-b]pyridine-6-carboxamide] |  | 476.9 |  | 268.37 | 239 | 390
CC(=O)N1CCC(COc2cc(C(=O)NS(C)(=O)=O)nc3c2c(C2CCC2)nn3-c2ccccc2)CC1 [Compound 296, 4-[(1-acetylpiperidin-4-yl)methoxy]-3-cyclobutyl-N-(methanesulfonyl)-1-phenyl-1H-pyrazolo[3,4-b]pyridine-6-carboxamide] |  | 329.13 |  | 154.7 | 168 | 396
COCC1CCN(c2cc(C(=O)NS(=O)(=O)N3CCC(N4CCC[C@@H]4COC)CC3)nc3c2c(C2CCC2)nn3-c2ccccc2)CC1 [Compound 395, 3-cyclobutyl-4-[4-(methoxymethyl)piperidin-1-yl]-N-{4-[(2R)-2-(methoxymethyl)pyrrolidin-1-yl]piperidine-1-sulfonyl}-1-phenyl-1H-pyrazolo[3,4-b]pyridine-6-carboxamide] |  | 327.95 |  | 209.2 | 127 | 474
CCS(=O)(=O)NC(=O)c1cc(-c2cnc(N(C)C)nc2)c2c(C3CN(C(=O)OC)C3)nn(C3CCCCC3)c2n1 [Compound 52, methyl 3-{1-cyclohexyl-4-[2-(dimethylamino)pyrimidin-5-yl]-6-[(ethanesulfonyl)carbamoyl]-1H-pyrazolo[3,4-b]pyridin-3-yl}azetidine-1-carboxylate] |  | 257.85 |  | 75.755 | 992 | 1150
COCCS(=O)(=O)NC(=O)c1cc(N2CCN(CC(F)(F)F)CC2)c2c(C3CCC3)nn(-c3ccccc3)c2n1 [Compound 330, 3-cyclobutyl-N-(2-methoxyethanesulfonyl)-1-phenyl-4-[4-(2,2,2-trifluoroethyl)piperazin-1-yl]-1H-pyrazolo[3,4-b]pyridine-6-carboxamide] |  | 285.4 |  | 133.1 | 124 | 213
